According to patent US20150157575A1, “Pharmaceutical Formulations Comprising Vilazodone” (Forest Laboratories Holdings Ltd., priority 2013, published 2015):
Read-outs that look alike come from different tables or passages of the source.

Test: Study 1: single-dose pharmacokinetics in mild or moderate hepatic impairment and matched healthy controls
Type: in vivo, human
Conditions: for AUC(0-inf) / AUC(0-t) / Cmax / half-life / Tmax: both sexes, human, plasma, po, 20 mg, vilazodone 20 mg single oral dose
Experimental: The pharmacokinetics, tolerability, and safety of vilazodone were investigated in two separate trials involving participants with hepatic impairment, compared with healthy controls. An Open-label, parallel-group, single-dose pharmacokinetic studies, a single, oral dose of vilazodone (20 mg with increased hardness) was administered to participants with mild, moderate, or severe hepatic impairment or individually matched controls. Outcomes included pharmacokinetic parameters and safety (vital signs, clinical laboratory evaluations, ECG, and adverse events [AEs]). Plasma samples were analyzed using validated LC/MS/MS methods.
Data from two, open-label, parallel-group, single-dose pharmacokinetic studies investigated single-dose vilazodone (20 mg with increased hardness) in participants with hepatic impairment and normal hepatic function. The first study (Study 1) included participants with mild or moderate hepatic impairment and healthy controls. The second study (Study 2) included participants with severe hepatic impairment or healthy participants. These studies were both designed in accordance with the FDA guidance for evaluation of pharmacokinetics in the presence of hepatic impairment. The differences between the study protocols were minimal, so both methodologies are described together, with any differences noted below.
Participants were men and women, 18 to 70 years of age, with a body mass index (BMI) of 18-42 kg/m^2. Women were not pregnant or breastfeeding and agreed to utilize a medically accepted form of contraception during the study (as did men in Study 2). In Study 2, participants were also required to be non-smokers or light smokers (fewer than 10 cigarettes per day; there was no stipulation in Study 1) and to have a sitting pulse rate of 50-100 bpm at screening and prior to dosing on Day 1. […] Each healthy control was matched with a hepatically impaired participant. Control participants in the Study 1 were matched with a hepatically impaired individual according to age (±10 years), sex, and BMI (±15%). Control participants in Study 2 were matched with a hepatically impaired individual according to age (±5 years), sex, and weight (±10%).
Participants with hepatic dysfunction were classified according to the Child-Pugh hepatic dysfunction staging system as having mild (5-6 points) or moderate (7-9 points) hepatic impairment (Study 1), or severe impairment (10-15 points; Study 2). Participants with severe impairment also had chronic liver disease and/or compensated cirrhosis, as evidenced by liver biopsy, computerized tomography or ultrasonic evidence of hepatic fibrosis, clinical evidence of chronic liver disease, or a colloid shift on a liver-spleen scan. Exclusion criteria included the following: a clinical diagnosis or history of depression; treatment with antidepressants, anxiolytics, psychoactive medications (including herbal supplements), other serotonergic drugs, or drugs that inhibit CYP3A4 (eg, ketoconazole, diltiazem, macrolide antibiotics); a hypersensitivity to vilazodone or other SSRIs or 5-HT agonists; history or evidence of alcohol or substance abuse, cancer, human immunodeficiency virus, hepatitis B (Study 1 and healthy controls, both studies) hepatitis C (healthy controls, both studies), or other clinically significant illnesses or medical conditions. Participants with severe hepatic impairment were excluded if they had bleeding diathesis, advanced ascites requiring large-volume paracentesis within 1 week of dosing, esophageal bleeding within the previous 8 weeks, history of portosystemic shunt or hepatic transplant, or evidence of hepatic encephalopathy, hepatorenal syndrome, or other evidence of rapid hepatic deterioration.
Participants were not allowed to have previously taken vilazodone or participated in any clinical investigation requiring repeated blood draws within 60 days of dosing, or donated blood or plasma within 60 or 30 days, respectively.

[1] = Mild impairment/control, 20 mg single dose
[2] = Moderate impairment/control, 20 mg single dose
[3] = Control matched to Mild Impairment n = 8
[4] = Control matched to Moderate Impairment n = 8

Cl.N#Cc1ccc2[nH]cc(CCCCN3CCN(c4ccc5oc(C(N)=O)cc5c4)CC3)c2c1 [Vilazodone, 1-[4-(5-cyanoindol-3-yl)butyl]-4-(2-carbamoyl-benzofuran-5-yl)-piperazine hydrochloride]
AUC0-t, Ratio of Geometric Means (%) [1]: 97.7%
AUC0-∞, Ratio of Geometric Means (%) [1]: 98.0%
Cmax, Ratio of Geometric Means (%) [1]: 97.8%
AUC0-t, Ratio of Geometric Means (%) [2]: 89.5%
AUC0-∞, Ratio of Geometric Means (%) [2]: 90.5%
Cmax, Ratio of Geometric Means (%) [2]: 97.2%
AUC(0-inf) [3]: 945 ± 169 ng·h/mL
AUC(0-t) [3]: 898 ± 168 ng·h/mL
Cmax [3]: 43.1 ± 13.1 ng/mL
half-life [3]: 25.9 ± 5.9 h
Tmax (Control matched to Mild Impairment n = 8, read-out: Tmax (mean)): 5 ± 1.5 h
Tmax (Control matched to Mild Impairment n = 8, read-out: Tmax, Median): 5 h
AUC(0-inf) [4]: 809 ± 231 ng·h/mL
AUC(0-t) [4]: 768 ± 229 ng·h/mL
Cmax [4]: 35.8 ± 10.7 ng/mL
half-life [4]: 25.4 ± 5.5 h
Tmax (Control matched to Moderate Impairment n = 8, read-out: Tmax (mean)): 4.9 ± 0.84 h
Tmax (Control matched to Moderate Impairment n = 8, read-out: Tmax, Median): 5 h
AUC(0-inf) (Mild Impairment n = 8): 1030 ± 506 ng·h/mL
AUC(0-t) (Mild Impairment n = 8): 984 ± 505 ng·h/mL
Cmax (Mild Impairment n = 8): 44.1 ± 16.5 ng/mL
half-life (Mild Impairment n = 8): 30.6 ± 8.2 h
Tmax (Mild Impairment n = 8, read-out: Tmax (mean)): 4.6 ± 1.6 h
Tmax (Mild Impairment n = 8, read-out: Tmax, Median): 4.5 h
AUC(0-inf) (Moderate Impairment n = 8): 727 ± 196 ng·h/mL
AUC(0-t) (Moderate Impairment n = 8): 683 ± 190 ng·h/mL
Cmax (Moderate Impairment n = 8): 34.2 ± 8.2 ng/mL
half-life (Moderate Impairment n = 8): 29.4 ± 11.4 h
Tmax (Moderate Impairment n = 8, read-out: Tmax (mean)): 4.1 ± 1.8 h
Tmax (Moderate Impairment n = 8, read-out: Tmax, Median): 4 h
mean recovery of unchanged vilazodone in urine over 96 hours (healthy participants and mild and moderate hepatic impairment, 20 mg single dose): ≤ 1.3 % of the dose
